# How the values were obtained:
# wildtype mice = assay: FeCl3-induced injury in the carotid artery after infusion of corn trypsin inhibitor; format: in vivo, mouse
# Description: (§1) Alternatively, to test the impact of small molecule FXII inhibitors, wildtype mice were infused with the FXII inhibitor corn trypsin inhibitor (CTI, 50 μg/g body weight) 5 min prior to FeCl3-induced injury in the carotic artery (Wang et al. (2005) J. Thromb. Heamost. 3: 695-702). […] In none of the animals tested (0/4) vessel occluding thrombi developed within 30 min following application of FeCl3.
# [1] = tested on: intrinsic coagulation pathway; assay: aPTT of wildtype mice after infusion of corn trypsin inhibitor; format: in vivo, mouse; conditions: CTI 50 μg/g body weight, n=4
# Description: as §1
# Global and single coagulation parameters were determined with an automated blood coagulation system (BCS, Dade Behring) with Dade Behring reagents according to the protocols for human samples detailed by the manufacturer. Principles of BCS assay protocols are available from Dade Behring package inserts, which can be found on Dade Behring's web site (http://www.dadebehring.com). D-dimers werde measured with the ELISA from Asserachrorn (Roche). Peripheral blood counts were determines on the Sysmex XE 2100 according to standard protocols.
substance,measurement,setting,value
corn trypsin inhibitor [CTI],animals developing vessel occluding thrombi within 30 min following application of FeCl3,"wildtype mice; CTI 50 μg/g 5 min prior to injury, carotid artery",0/4
same,bleeding during the surgical procedure,wildtype mice; CTI 50 μg/g body weight,did not affect bleeding
same,aPTT,[1],62 ± 11 s

# Reference: US8715672B2, “Treatment of diseases linked to pathological kinin formation” (CSL Behring GmbH, priority 2004, dated 2014)
